Results reported in the supplement of paper PMC10307832.

Assays:
Assay in all cases: relative viability (nuclei count vs DMSO), 5 days (fraction); higher = more cells survive
[1] = compound: CCOC(=O)CCNc1cc(N2CCc3ccccc3CC2)nc(-c2ccccn2)n1 [GSK-J4] + COc1cc2c(Oc3ccc(NC(=O)C4(C(=O)Nc5ccc(F)cc5)CC4)cc3F)ccnc2cc1OCCCN1CCOCC1 [Foretinib] (partner 0.25 µM)
Summary of the method: (§1)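 Relative viability divides the nuclei count in treated wells by that in vehicle wells. Lung cancer cell lines were seeded in 1536-well plates, dosed by pin tool the next day, and fixed and stained after 5 days in one step with final 0.05% Triton X-100, 1% formaldehyde and 1 ug/ml Hoechst. Dosing was a single drug or a fixed anchor-drug dose plus five library-drug doses (not always all listed) in √10 steps, and values are medians of duplicate plates imaged at 4×.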

[2] = compound: CCOC(=O)CCNc1cc(N2CCc3ccccc3CC2)nc(-c2ccccn2)n1 [GSK-J4] + CC(=O)Nc1cccc(-n2c(=O)n(C3CC3)c(=O)c3c(Nc4ccc(I)cc4F)n(C)c(=O)c(C)c32)c1 [Trametinib] (partner 0.02 µM)
Summary of the method: as §1

[3] = compound: CCOC(=O)CCNc1cc(N2CCc3ccccc3CC2)nc(-c2ccccn2)n1 [GSK-J4] + Cc1cc(Nc2cc(N3CCN(C)CC3)nc(Sc3ccc(NC(=O)C4CC4)cc3)n2)n[nH]1 [Tozasertib] (partner 0.1 µM)
Summary of the method: as §1

[4] = compound: CCOC(=O)CCNc1cc(N2CCc3ccccc3CC2)nc(-c2ccccn2)n1 [GSK-J4] + CC1(C)CCC(c2ccc(Cl)cc2)=C(CN2CCN(c3ccc(C(=O)NS(=O)(=O)c4ccc(N[C@H](CCN5CCOCC5)CSc5ccccc5)c(S(=O)(=O)C(F)(F)F)c4)cc3)CC2)C1 [Navitoclax] (partner 0.5 µM)
Summary of the method: as §1

UMC-11
relative viability ([1]; first compound 0.5 µM): 0.896
relative viability ([1]; first compound 5 µM): 1.07
relative viability ([1]; first compound 15.81 µM): 1.08
relative viability ([1]; first compound 50 µM): 0.556
relative viability ([2]; first compound 0.5 µM): 0.666
relative viability ([2]; first compound 1.581 µM): 0.336
relative viability ([2]; first compound 5 µM): 0.255
relative viability ([2]; first compound 15.81 µM): 0.834
relative viability ([2]; first compound 50 µM): 0.521
relative viability ([3]; first compound 0.5 µM): 0.189
relative viability ([3]; first compound 15.81 µM): 0.176
relative viability ([3]; first compound 50 µM): 0.17
relative viability ([4]; first compound 0.5 µM): 0.332
relative viability ([4]; first compound 1.581 µM): 0.233
relative viability ([4]; first compound 5 µM): 0.341
relative viability ([4]; first compound 15.81 µM): 0.305
relative viability ([4]; first compound 50 µM): 0.179
